{"source": "patent US10654896B2", "about": "“FoxP3-binding peptides and uses thereof” (FUNDACIÓN PARA LA INVESTIGACIÓN MÉDICA APLICADA, priority 2016, dated 2020)", "note": "Where a SMILES comes first, the peptide text is derived from it. [ ]: non-standard residue; d: D form.", "data": [{"system": "murine Treg (CD25+ T cells)", "assay": "In vitro Treg suppression assay ([3H]-thymidine, anti-CD3)", "format": "cell-based, BALB/c mice", "settings": "peptide 100 μM", "protocol": "(§1) Spleen was harvested from BALB/c mice (Harlan Laboratories) and homogenized with a 1-ml syringe through a 100-μm cell strainer into a 50-ml conical tube and rinsed two times with PBS (Calcium free) to recover all cells. Cell homogenate was centrifuged at 300×g for 10 min and resuspended homogenate in 1 ml ACK Lysis buffer solution per spleen. Gently swirled for 2 min and then the reaction was quenched by adding 12 ml of PBS.\n(§2) Cells were centrifuged at 300×g for 10 min and purification of CD25− and CD25+ cells was carried out using magnetic beads (Miltenyi, CD25 microbead kit MOUSE, Ref 130-091-072)), following manufacturer's instructions. After labelling the cells, they were purified using Automacs-Pro device following manufacturer's instructions. Negative fraction corresponded to CD25− cells, which was used as effector Tconv cells. Positive fraction corresponded to CD25+ T cells that was used as Treg cells. Flow cytometry using anti-CD25-APC labeled and anti-CD4-FITC labelled antibodies was used to confirm the purity of isolated cells. Foxp3 expression was analyzed using the anti-Foxp3 staining antibody labelled with APC according to manufacturer's instructions (eBioscience). Purified cells were washed, resuspended in culture medium and diluted in T-cell culture medium (RPMI 1640, supplemented with 10% Fetal bovine serum and antibiotics) at a concentration of 2×10^5/ml (for Tregs) and 2×10^6/ml (for Tconv), for the assay (See below)\n(§3) The first in vitro assays to measure regulatory T-cell (Treg) function were described by two groups over a decade ago. […] With this knowledge, it was shown that CD4+CD25+ T cells could potently suppress the proliferation of activated CD4+CD25− and CD8+ T cells when the populations were cocultured in vitro. The following protocol describes a basic type of in vitro Treg suppression assay where Treg function is measured in the absence of antigen-presenting cells (APCs). In this protocol, activation is mediated by anti-CD3 antibodies and includes only two cell types, the target Tconv and Tregs. In this protocol, the experiment is setup in a 96-well round-bottom plate in a total volume of 200 μl. All reagents are prepared at four times their desired final concentration and added to assay in 50 μl such that the total volume is 200 μl, thus obtaining the desired final concentration of reactives. Purified Tregs and Tconv prepared as described above were diluted and adjusted in T-cell culture medium to 2×10^5/ml and 2×10^6/ml, respectively. In round-bottom 96-well plate, Tregs and Tconv were added in 50 μl of culture media each (RPMI 1640, supplemented with 10% Fetal bovine serum, and antibiotics). Anti-CD3 antibody was added in 50 μl (final concentration will be 2.5 μg/ml) as a stimulus to induce T cell proliferation. 50 μL of each one of the peptides to be tested were added in the corresponding wells at a concentration of 100 μM and those which provided the best results were tested again at lower concentrations to determine the IC50 value. The final volume was 200 μl in all wells. Tconv alone, Tconv plus anti-CD3, Tconv+anti-CD3+ Treg or Tconv+anti-CD3+Treg+peptides were tested by quadruplicate. Tconv plus anti-CD3 with no Treg was used to determine maximum proliferation of Tconv whereas Tconv+anti-CD3+ Treg was used to determine Treg inhibition. Plates were incubated at 37° C., 5% CO2 for 72 h and then pulsed with 0.1 μCi [^3H]-thymidine (in 25 μl of culture medium per well). After 8 h of incubation, cell cultures were harvested with a cell harvester (Perkin Elmer) and using unifilter plates. Plates were then dried at 50° C., and scintillation reagent (25 μl)(Microscint, Perkin Elmer) was added to each well. Counts per minute (cpm) were determined with a direct beta counter (TopCount, Perkin Elmer).\n(§4) The results of in vitro Treg suppression assays are most commonly reported as cpm when [^3H]-thymidine is incorporated into proliferating cells. […]", "units": {"Treg inhibition - % inhibition (100 μM)": "%"}, "values": [{"compound": "H-RDFQSFRKMWPFFAM-OH [compound 1]", "Treg inhibition - % inhibition (100 μM)": 115.6}]}, {"system": "murine Treg (CD25+ T cells)", "assay": "In vitro Treg suppression assay ([3H]-thymidine, anti-CD3)", "format": "cell-based, BALB/c mice", "settings": "read-out: IC50 (peptide concentration able to inhibit 50% of Treg activity)", "protocol": "as §1, §2, §3, §4", "units": {"IC50": "µM"}, "values": [{"compound": "CSCC[C@H](NC(=O)[C@H](CCCCN)NC(=O)[C@H](CCCNC(=N)N)NC(=O)[C@H](Cc1ccccc1)NC(=O)[C@H](CO)NC(=O)[C@H](CCC(N)=O)NC(=O)[C@H](Cc1ccccc1)NC(=O)[C@H](C)NC(=O)[C@@H](N)CCCNC(=N)N)C(=O)N[C@@H](Cc1c[nH]c2ccccc12)C(=O)N1CCC[C@H]1C(=O)N[C@@H](Cc1ccccc1)C(=O)N[C@@H](Cc1ccccc1)C(=O)N[C@@H](C)C(=O)N[C@H](CCSC)C(=O)O", "note": "[compound 47] (H-RAFQSFRKMWPFFA[dM]-OH; N-terminus and C-terminus assumed)", "IC50": 35}, {"compound": "CSCC[C@@H]1NC(=O)[C@H](C)NC(=O)[C@H](Cc2ccccc2)NC(=O)[C@H](Cc2ccccc2)NC(=O)[C@@H]2CCCN2C(=O)[C@H](Cc2c[nH]c3ccccc23)NC(=O)[C@H](CCSC)NC(=O)[C@H](CCCCN)NC(=O)[C@H](CCCNC(=N)N)NC(=O)[C@H](Cc2ccccc2)NC(=O)[C@H](C)NC(=O)[C@H](CCC(N)=O)NC(=O)[C@H](Cc2ccccc2)NC(=O)[C@H](C)NC(=O)[C@H](CCCNC(=N)N)NC1=O", "note": "[compound 50] (cyclo(RAFQAFRKMWPFFAM))", "IC50": 0.8}, {"compound": "H-RDFQSFRKMWPFFAM-OH [compound 1]", "IC50": 38.3}, {"compound": "CSCC[C@H](NC(=O)[C@H](C)NC(=O)[C@H](Cc1ccccc1)NC(=O)[C@H](Cc1ccccc1)NC(=O)[C@@H]1CCCN1C(=O)[C@H](Cc1c[nH]c2ccccc12)NC(=O)[C@H](CCSC)NC(=O)[C@H](CCCCN)NC(=O)[C@H](CCCNC(=N)N)NC(=O)[C@H](Cc1ccccc1)NC(=O)[C@H](CO)NC(=O)[C@H](CCC(N)=O)NC(=O)[C@H](Cc1ccccc1)NC(=O)[C@H](C)NC(=O)[C@H](N)CCCNC(=N)N)C(=O)O", "note": "[compound 46] (H-[dR]AFQSFRKMWPFFAM-OH; N-terminus and C-terminus assumed)", "IC50": 12.5}, {"compound": "CSCC[C@H](NC(=O)[C@H](C)NC(=O)[C@H](Cc1ccccc1)NC(=O)[C@H](Cc1ccccc1)NC(=O)[C@@H]1CCCN1C(=O)[C@H](Cc1c[nH]c2ccccc12)NC(=O)[C@H](CCSC)NC(=O)[C@H](CCCCN)NC(=O)[C@H](CCCNC(=N)N)NC(=O)[C@H](Cc1ccccc1)NC(=O)[C@H](CO)NC(=O)[C@H](CCC(N)=O)NC(=O)[C@H](Cc1ccccc1)NC(=O)[C@@H](CC(=O)O)NC(=O)[C@@H](N)CCCNC(=N)N)C(=O)O", "note": "[compound 3] (H-R[dD]FQSFRKMWPFFAM-OH)", "IC50": 27.2}, {"compound": "CSCC[C@H](NC(=O)[C@H](CCCCN)NC(=O)[C@H](CCCNC(=N)N)NC(=O)[C@H](Cc1ccccc1)NC(=O)[C@H](CO)NC(=O)[C@H](CCC(N)=O)NC(=O)[C@H](Cc1ccccc1)NC(=O)[C@H](C)NC(=O)[C@H](N)CCCNC(=N)N)C(=O)N[C@@H](Cc1c[nH]c2ccccc12)C(=O)N1CCC[C@H]1C(=O)N[C@@H](Cc1ccccc1)C(=O)N[C@@H](Cc1ccccc1)C(=O)N[C@@H](C)C(=O)N[C@H](CCSC)C(=O)O", "note": "[compound 48] (H-[dR]AFQSFRKMWPFFA[dM]-OH; N-terminus and C-terminus assumed)", "IC50": 20}]}]}
